Test results as given in publication PMC5938390, “Tachyplesin Causes Membrane Instability That Kills Multidrug-Resistant Bacteria by Inhibiting the 3-Ketoacyl Carrier Protein Reductase FabG” (Frontiers in Microbiology, 2018).
Positions of bridges follow the written chain, without caps; N, C: chain ends. No end group written: not given here.

How the values were obtained:
P. aeruginosa 1409 [1] = type: cell-based, Pseudomonas aeruginosa; details: Pa, Ta 16 μg/ml or Lvf 32 μg/ml, 30 min, 37°C
Procedure: (§1) The Vitek 32 system (bioMerieux, France) and 16S rDNA sequencing were used to verify the clinical isolates A. baumannii 1408, P. aeruginosa 1409, Klebsiella pneumoniae 5 and E. coli 513, which were grown overnight in Luria-Bertani (LB) medium at 37°C with constant shaking at 220 rpm to reach the middle of their logarithmic growth phase. […] After the addition of 2 volumes of RNAprotect Bacteria Reagent (QIAGEN) to stabilized RNA, samples were vortexed for 5 s, incubated for 5 min at room temperature (15–25°C) and collected by centrifugation at 4°C for 5 min at 4000 g.
(§2) RNA isolation and sequencing were performed by Novogene Bioinformatics Technology Co., Ltd. (Beijing, China) as previously described ([Liu B. et al., 2014]). Clean reads were mapped to the corresponding bacterial genomes using Bowtie 2 software ([Langmead and Salzberg, 2012]). Gene expression was calculated using the FPKM (expected number of fragments per kilobase of transcript sequence per millions of base pairs sequenced) method with HTSeq software (union model) ([Anders et al., 2015]). Differentially expressed genes were selected based on the DESeq R package with Padj values < 0.05 ([Anders and Huber, 2010]). KEGG pathway analysis was performed using KOBAS (2.0), and the corrected p value cut-off was set at 0.05 ([Li et al., 2015]).

E. coli 513 [2] = assay: Transcriptome analysis (RNA sequencing, FPKM, DESeq); type: cell-based, Escherichia coli; details: Ec, Ta 16 μg/ml or Lvf 32 μg/ml, 30 min, 37°C
Procedure: as §1, §2

P. aeruginosa 1409 [3] = assay: MIC against MDR clinical isolate; type: cell-based, Pseudomonas aeruginosa
K. pneumoniae 5 [4] = assay: Transcriptome analysis (RNA sequencing, FPKM, DESeq); type: cell-based, Klebsiella pneumoniae; details: Kp, Ta 16 μg/ml or Lvf 32 μg/ml, 30 min, 37°C
Procedure: as §1, §2

K. pneumoniae 5 [5] = assay: MIC against clinical isolate; type: cell-based, Klebsiella pneumoniae
E. coli 513 [6] = assay: MIC against clinical isolate; type: cell-based, Escherichia coli
A. baumannii 1408 [7] = assay: MIC against MDR clinical isolate; type: cell-based, Acinetobacter baumannii
[8] = system: P. aeruginosa strain 1409; assay: Membrane rupture by propidium iodide staining; type: cell-based, Pseudomonas aeruginosa; details: LB medium, 25°C, 1 h, then PI 10 μg/ml 30 min
Procedure: These studies were carried out as we previously reported with slight modifications and briefly introduced as follows ([Liu et al., 2017]). […] Cytotoxicity in different cell lines was assessed using the Cell Proliferation Kit II (XTT) (Roche), and cytotoxicity in hemocytes was evaluated by the increase in the absorbance at 540 nm after peptide incubation. Membrane rupture was indicated by the entrance of the DNA-binding fluorescent dye PI into MDR clinical isolates of P. aeruginosa strain 1409. Membrane translocation of N-terminal FITC-conjugated tachyplesin III (purity ≥ 95%, synthesized by GL Biochem Co., Ltd, Shanghai, China) into MDR clinical isolates of Acinetobacter baumannii strain 1408 were detected by confocal laser-scanning microscopy.
After centrifugation at 3000 g for 10 min, cells were resuspended in the same volume of PBS (phosphate-buffered saline, 8 g/L NaCl, 0.2 g/L KCl, 1.44 g/L Na2HPO4, 0.24 g/L KH2PO4, pH 7.4). Then, PI was added to a final concentration of 10 μg/ml. After 30 min of incubation at 25°C, the cells were washed three times with PBS and immediately imaged with a fluorescence microscope.

A. baumannii 1408 [9] = assay: Transcriptome analysis (RNA sequencing, FPKM, DESeq); type: cell-based, Acinetobacter baumannii; details: Ab, Ta 16 μg/ml or Lvf 32 μg/ml, 30 min, 37°C
Procedure: as §1, §2

[10] = target: T1, 3-ketoacyl carrier protein reductase FabG from E. coli (E. coli, UniProt P0AEK2 1-244); assay: SPR; tachyplesin III amine-coupled to a CM5 chip (approximately 1000 resonance units); FabG (1.25, 2.5, 5, 10 μg/mL) in HBS-N running buffer injected at 20 μl/min for 6 min; Biacore 3000; 1:1 Langmuir binding model; details: both partners purified
T1 construct: FabG, 3-ketoacyl-acyl carrier protein reductase, E. coli; cloned into the NcoI and XhoI sites of pET28a; also called 3-ketoacyl-acyl carrier protein reductase; β-ketoacyl-acyl carrier protein (ACP) reductase FabG; source: E. coli BL21 DE3 (pET28a), purified with Ni resin
T1 sequence: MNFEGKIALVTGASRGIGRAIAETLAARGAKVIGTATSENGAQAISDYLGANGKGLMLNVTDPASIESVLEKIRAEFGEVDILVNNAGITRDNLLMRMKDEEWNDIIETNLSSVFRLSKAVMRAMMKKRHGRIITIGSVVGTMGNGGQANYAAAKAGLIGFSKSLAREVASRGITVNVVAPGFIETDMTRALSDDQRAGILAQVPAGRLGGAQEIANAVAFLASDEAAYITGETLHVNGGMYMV

Question: With `C[C@H]1COc2c(N3CCN(C)CC3)c(F)cc3c(=O)c(C(=O)O)cn1c23` [levofloxacin] as the molecule, how does the “FPKM of gene PADK2_26395” value (P. aeruginosa 1409 [1]; control 7.76041) read?
Answer: The value was 10.0809.

Question: What about the “FPKM of gene PADK2_02440” value (P. aeruginosa 1409 [1]; control 10.8663) of the same molecule?
Answer: The value was 14.499.

Question: What about the “FPKM of gene PADK2_25635” value (P. aeruginosa 1409 [1]; control 48.5098) of the same molecule?
Answer: Its value is 42.4346.

Question: And the “FPKM of gene PADK2_02970” value (P. aeruginosa 1409 [1]; control 53.0528)?
Answer: Its value is 66.953.

Question: And the “FPKM of gene PADK2_25405 (3-ketoacyl-acyl carrier protein reductase)” value (P. aeruginosa 1409 [1]; control 56)?
Answer: The value was 43.

Question: What about the “FPKM of gene PADK2_17500” value (P. aeruginosa 1409 [1]; control 97.7062) of the same molecule?
Answer: The value was 119.076.

Question: What about the “FPKM of gene PADK2_09275 (3-hydroxyacyl-CoA dehydrogenase)” value (P. aeruginosa 1409 [1]; control 361) of the same molecule?
Answer: Its value is 369.

Question: And the “readcount of gene Novel00001 in treated sample” value (P. aeruginosa 1409 [1]; differential analysis)?
Answer: Its value is 77.24.

Question: And the “readcount of gene Novel00002 in treated sample” value (P. aeruginosa 1409 [1]; differential analysis)?
Answer: The value was 21.4195.

Question: What about the “readcount of gene Novel00003 in treated sample” value (P. aeruginosa 1409 [1]; differential analysis) of the same molecule?
Answer: The value was 79.1872.

Question: And the “readcount of gene Novel00004 in treated sample” value (P. aeruginosa 1409 [1]; differential analysis)?
Answer: Its value is 104.501.

Question: And the “readcount of gene Novel00005 in treated sample” value (P. aeruginosa 1409 [1]; differential analysis)?
Answer: The value was 85.0289.

Question: And the “FPKM of gene b1943” value (E. coli 513 [2]; control 0)?
Answer: Its value is 0.

Question: And the “FPKM of gene b1815” value (E. coli 513 [2]; control 22.7313)?
Answer: Its value is 15.6958.

Question: What about the “FPKM of gene b0242” value (E. coli 513 [2]; control 40.7621) of the same molecule?
Answer: Its value is 43.1933.

Question: And the “FPKM of gene b2495” value (E. coli 513 [2]; control 62.5019)?
Answer: The value was 46.4771.

Question: What about the “FPKM of gene b4004” value (E. coli 513 [2]; control 64.6122) of the same molecule?
Answer: The value was 63.7219.

Question: What about the “FPKM of gene b3846 (3-hydroxyacyl-CoA dehydrogenase)” value (E. coli 513 [2]; control 97) of the same molecule?
Answer: Its value is 94.

Question: What about the “FPKM of gene b1093 (3-ketoacyl-acyl carrier protein reductase)” value (E. coli 513 [2]; control 633) of the same molecule?
Answer: The value was 627.

Question: What about the “readcount of gene b0001 in treated sample” value (E. coli 513 [2]; differential analysis) of the same molecule?
Answer: Its value is 28.7713.

Question: And the “readcount of gene b0002 in treated sample” value (E. coli 513 [2]; differential analysis)?
Answer: Its value is 277.558.

Question: What about the “readcount of gene b0003 in treated sample” value (E. coli 513 [2]; differential analysis) of the same molecule?
Answer: The value was 192.091.

Question: And the “readcount of gene b0004 in treated sample” value (E. coli 513 [2]; differential analysis)?
Answer: Its value is 222.554.

Question: And the “readcount of gene b0005 in treated sample” value (E. coli 513 [2]; differential analysis)?
Answer: Its value is 14.3856.

Question: And the “32 μg/ml levofloxacin expressed as multiple of MIC” value (“32 μg/ml levofloxacin expressed” below) (P. aeruginosa 1409 [3]; P. aeruginosa 1409)?
Answer: The value was 2 × MIC.

Question: And the “1/4× MIC” value (P. aeruginosa 1409 [3]; P. aeruginosa strain 1409)?
Answer: Its value is 4 µg/mL.

Question: What about the “4× MIC” value (P. aeruginosa 1409 [3]; P. aeruginosa strain 1409) of the same molecule?
Answer: The value was 64 µg/mL.

Question: What about the “FPKM of gene KPNJ2_01473” value (K. pneumoniae 5 [4]; control 0) of the same molecule?
Answer: Its value is 1.282.

Question: And the “FPKM of gene KPNJ2_01064” value (K. pneumoniae 5 [4]; control 3.68216)?
Answer: Its value is 0.

Question: What about the “FPKM of gene KPNJ2_04725” value (K. pneumoniae 5 [4]; control 22.8601) of the same molecule?
Answer: The value was 21.9489.

Question: What about the “FPKM of gene KPNJ2_03426 (3-ketoacyl-acyl carrier protein reductase)” value (K. pneumoniae 5 [4]; control 41.4) of the same molecule?
Answer: The value was 80.6.

Question: And the “FPKM of gene KPNJ2_01584 (Enoyl-CoA hydratase)” value (K. pneumoniae 5 [4]; control 128)?
Answer: Its value is 190.

Question: And the “FPKM of gene KPNJ2_04200” value (K. pneumoniae 5 [4]; control 4040.19)?
Answer: Its value is 4507.07.

Question: And the “readcount of gene KPNJ2_00001 in treated sample” value (K. pneumoniae 5 [4]; differential analysis)?
Answer: The value was 119.391.

Question: And the “readcount of gene KPNJ2_00002 in treated sample” value (K. pneumoniae 5 [4]; differential analysis)?
Answer: Its value is 95.8073.

Question: And the “readcount of gene KPNJ2_00003 in treated sample” value (K. pneumoniae 5 [4]; differential analysis)?
Answer: Its value is 27.2682.

Question: What about the “readcount of gene KPNJ2_00004 in treated sample” value (K. pneumoniae 5 [4]; differential analysis) of the same molecule?
Answer: The value was 368.489.

Question: And the “readcount of gene KPNJ2_00005 in treated sample” value (K. pneumoniae 5 [4]; differential analysis)?
Answer: Its value is 375.122.

Question: What about the “32 μg/ml levofloxacin expressed” value (K. pneumoniae 5 [5]) of the same molecule?
Answer: Its value is 2 × MIC.

Question: And the “32 μg/ml levofloxacin expressed” value (E. coli 513 [6])?
Answer: Its value is 1 × MIC.

Question: And the “32 μg/ml levofloxacin expressed” value (A. baumannii 1408 [7])?
Answer: The value was 1 × MIC.

Question: What about the “membrane integrity (PI fluorescence)” value ([8]; 1/4× MIC) of the same molecule?
Answer: Its value is “did not affect the integrity of bacterial membranes”.

Question: What about the “membrane integrity (PI fluorescence)” value ([8]; 4× MIC (high concentration)) of the same molecule?
Answer: The value was “some of the bacterial membranes were broken slightly”.

Question: What about the “FPKM of gene A1S_1815” value (A. baumannii 1408 [9]; control 0) of the same molecule?
Answer: The value was 0.

Question: What about the “FPKM of gene Novel00132” value (A. baumannii 1408 [9]; control 18.2658) of the same molecule?
Answer: The value was 8.387.

Question: And the “FPKM of gene A1S_0707” value (A. baumannii 1408 [9]; control 51.3724)?
Answer: Its value is 62.4914.

Question: And the “FPKM of gene A1S_2182” value (A. baumannii 1408 [9]; control 136.449)?
Answer: Its value is 191.991.

Question: What about the “FPKM of gene A1S_2061 (3-ketoacyl-acyl carrier protein reductase)” value (A. baumannii 1408 [9]; control 323) of the same molecule?
Answer: The value was 328.

Question: What about the “FPKM of gene A1S_1368” value (A. baumannii 1408 [9]; control 2030.48) of the same molecule?
Answer: The value was 1961.71.

Question: What about the “readcount of gene A1S_0001 in treated sample” value (A. baumannii 1408 [9]; differential analysis) of the same molecule?
Answer: Its value is 246.119.

Question: And the “readcount of gene A1S_0002 in treated sample” value (A. baumannii 1408 [9]; differential analysis)?
Answer: Its value is 308.109.

Question: What about the “readcount of gene A1S_0003 in treated sample” value (A. baumannii 1408 [9]; differential analysis) of the same molecule?
Answer: The value was 33.1432.

Question: What about the “readcount of gene A1S_0004 in treated sample” value (A. baumannii 1408 [9]; differential analysis) of the same molecule?
Answer: The value was 622.97.

B1: tachyplesin III (peptide)
peptide: KWCFRVCYRGICYRKCR
modifications: disulfide 7-12, 3-16; ends not checked
notes: tachyplesin III, cationic beta-hairpin antimicrobial peptide from horseshoe crab hemocytes; 17 residues; Coupled to the CM5 chip through amines in the SPR; source: synthetic peptide (purity ≥ 95%, synthesized by GL Biochem Co., Ltd, Shanghai, China)
Question: Does B1 bind [10]?
Answer: Result: binds
